Measurements reported in ChEMBL document CHEMBL1201862, “PubChem BioAssay data set” (2004).
Calls of active or inactive are those of the source.

Key:
Cytochrome P450 1A2 = biological target: T1, Cytochrome P450 1A2 (Homo sapiens, UniProt P05177);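 note: PubChem cytochrome P450 panel assay, CYP1A2 panel member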
T1 sequence (P05177 whole entry): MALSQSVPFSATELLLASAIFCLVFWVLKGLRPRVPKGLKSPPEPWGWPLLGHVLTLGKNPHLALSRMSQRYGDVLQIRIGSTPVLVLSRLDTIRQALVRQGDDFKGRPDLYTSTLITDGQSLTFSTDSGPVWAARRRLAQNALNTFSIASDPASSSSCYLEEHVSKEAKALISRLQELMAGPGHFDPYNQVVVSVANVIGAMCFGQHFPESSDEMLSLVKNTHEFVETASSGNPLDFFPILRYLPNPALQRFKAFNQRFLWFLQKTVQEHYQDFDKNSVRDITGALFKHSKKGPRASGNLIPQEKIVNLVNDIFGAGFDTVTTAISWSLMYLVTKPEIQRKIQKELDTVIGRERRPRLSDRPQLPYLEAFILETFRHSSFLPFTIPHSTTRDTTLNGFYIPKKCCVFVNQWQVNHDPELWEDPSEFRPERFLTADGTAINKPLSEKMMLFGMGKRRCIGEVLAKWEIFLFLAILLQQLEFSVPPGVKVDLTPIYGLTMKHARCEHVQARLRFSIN

Cytochrome P450 2C9 = Cytochrome P450 2C9 (Homo sapiens, UniProt P11712)
Cytochrome P450 3A4 = Cytochrome P450 3A4 (Homo sapiens, UniProt P08684);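 note: CYP3A4 tested as one member of a cytochrome P450 panel screen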
Cytochrome P450 2D6 = Cytochrome P450 2D6 (Homo sapiens, UniProt P10635);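 note: CYP2D6 member of a cytochrome P450 panel assay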
[1] = off-target signal loss in HeLa-CEM21 co-culture – HeLa F-luc CTL cells, cherry-picked, counter-screen for HIV-1 Env fusion inhibitor project, dose response (AID 652040); format: functional, cell-based;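 note: potency for signal decrease marking cytotoxic or nonspecific inhibition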
[2] = HIV-1 AD8 envelope cell-cell fusion blockers – cherry-pick, dose response (AID 652062); format: functional, cell-based;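 note: luciferase signal from cell-cell fusion driven by HIV-1 clade B AD8 Env; potency is for inhibitors of fusion seen as a drop in luminescence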
HeLa = assay: ATP-based viability loss in HeLa cells – cell-based, CellTiter-Glo luminescence, cherry-pick samples, cytotoxicity control for MITF activator project, dose response (AID 540259); format: functional; details: Homo sapiens
[3] = biological target: T2, Carboxy-terminal domain RNA polymerase II polypeptide A small phosphatase 1 (Homo sapiens, UniProt Q9GZU7); assay: CTDSP1 inhibitors, concentration-response, biochemical, absorbance readout, ultra-high-throughput screen actives (AID 540297); format: functional
T2 sequence (Q9GZU7 whole entry): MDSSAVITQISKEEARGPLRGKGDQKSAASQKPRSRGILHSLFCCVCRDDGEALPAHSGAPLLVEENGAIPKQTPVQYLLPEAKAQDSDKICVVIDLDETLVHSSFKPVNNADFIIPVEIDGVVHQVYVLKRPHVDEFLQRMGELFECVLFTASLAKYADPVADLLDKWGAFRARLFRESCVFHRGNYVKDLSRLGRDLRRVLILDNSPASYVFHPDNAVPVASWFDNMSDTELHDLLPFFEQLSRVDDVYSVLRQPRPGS

[4] = biological target: Dual specificity tyrosine-phosphorylation-regulated kinase 1A (Rattus norvegicus, UniProt Q63470); format: biochemical, Homo sapiens
[5] = fluconazole-exposed Candida albicans growth modulators – fluorescence, retest, confirmation (AID 2467); format: functional, cell-based
[6] = NIH-3T3 fibroblast cytotoxicity, dose response, cytotoxicity control, cell-based, fluorescence, Alamar Blue, secondary assay (AID 2327); format: functional;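 note: NIH-3T3 mouse fibroblasts cultured with fluconazole at 8 µg/mL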
[7] = Luminescence Cell-Based Dose Response HTS to Identify Activators of Luciferase Translation or Activity in H4 […] Cells. [Related pubchem assays: 1829 (Project Summary), 1814 (Primary HTS)]; format: functional
H4 = assay: Luminescence Cell-Based Dose Response HTS to Identify Activators of 5'UTR Stem-Loop Driven Prion Protein mRNA Translation in H4 Neuroglioblastoma Cells. [Related pubchem assays: 1829 (Project Summary), 1814 (Primary HTS)]; format: functional; details: Homo sapiens
Escherichia coli = assay: microbe, parasite or virus in culture
[8] = viability loss in THP-1 monocytes – THP-1 cells, cytotoxicity control for Vif-APOBEC3G degradation inhibitor project, dose response (AID 1117359); format: functional; details: THP-1
[9] = biological target: Induced myeloid leukemia cell differentiation protein Mcl-1 (Homo sapiens, UniProt Q07820); format: functional
[10] = Luminescence Cell-Based Dose Retest to Confirm Inhibitors of Cancer Stem Cells. [Related pubchem assays (depositor defined):AID2717, AID2721]; format: functional; details: Homo sapiens
INS1 = assay: INS-1E survival protection against cytokine death – cell-based, luminescence, retest, dose response (AID 449756); format: functional; details: Rattus norvegicus;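 note: cell death triggered by IL-1 beta plus TNF-alpha plus IFN-gamma mixture; protective hits raise ATP signal compared with cytokine alone wells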
Phospholipase A2 = Phospholipase A2 (Homo sapiens, UniProt P04054); format: functional;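 note: confirmatory dose-response counterscreen on phospholipase A2, testing hits that came from an ultra-high-throughput screen for ATG4B inhibitors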
[11] = biological target: T3, Long-chain-fatty-acid--AMP ligase FadD28 (Mycobacterium tuberculosis, UniProt P9WQ59); assay: Fluorescence polarization aasay to screen for inhibitors that compete for the binding of FadD28 to a bisubstrate Measured in Biochemical System Using Plate Reader - 2147-01_Inhibitor_Dose_CherryPick_Activity.; format: functional, Mycobacterium tuberculosis H37Rv
T3 sequence (P9WQ59 whole entry): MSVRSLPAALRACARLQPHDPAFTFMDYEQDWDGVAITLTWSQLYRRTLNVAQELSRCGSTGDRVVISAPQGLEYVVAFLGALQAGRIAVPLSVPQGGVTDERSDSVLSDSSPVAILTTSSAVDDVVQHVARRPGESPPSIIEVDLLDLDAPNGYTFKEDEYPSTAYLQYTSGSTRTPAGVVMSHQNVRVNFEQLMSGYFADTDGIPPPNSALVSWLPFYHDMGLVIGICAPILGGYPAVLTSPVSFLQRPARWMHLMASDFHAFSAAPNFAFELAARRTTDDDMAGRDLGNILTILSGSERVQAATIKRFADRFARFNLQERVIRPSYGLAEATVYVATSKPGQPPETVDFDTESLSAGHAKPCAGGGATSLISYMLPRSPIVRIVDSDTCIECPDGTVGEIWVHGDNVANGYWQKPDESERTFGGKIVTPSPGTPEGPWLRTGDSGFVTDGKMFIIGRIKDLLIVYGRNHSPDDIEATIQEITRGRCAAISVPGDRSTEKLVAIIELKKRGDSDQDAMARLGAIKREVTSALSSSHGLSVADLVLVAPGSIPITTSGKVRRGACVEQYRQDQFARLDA

Cysteine protease ATG4B = biological target: T4, Cysteine protease ATG4B (Homo sapiens, UniProt Q9Y4P1); format: functional;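 note: Fluorescence-based dose-response confirmation assay measuring inhibition of ATG4B activity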
T4 sequence (Q9Y4P1 whole entry): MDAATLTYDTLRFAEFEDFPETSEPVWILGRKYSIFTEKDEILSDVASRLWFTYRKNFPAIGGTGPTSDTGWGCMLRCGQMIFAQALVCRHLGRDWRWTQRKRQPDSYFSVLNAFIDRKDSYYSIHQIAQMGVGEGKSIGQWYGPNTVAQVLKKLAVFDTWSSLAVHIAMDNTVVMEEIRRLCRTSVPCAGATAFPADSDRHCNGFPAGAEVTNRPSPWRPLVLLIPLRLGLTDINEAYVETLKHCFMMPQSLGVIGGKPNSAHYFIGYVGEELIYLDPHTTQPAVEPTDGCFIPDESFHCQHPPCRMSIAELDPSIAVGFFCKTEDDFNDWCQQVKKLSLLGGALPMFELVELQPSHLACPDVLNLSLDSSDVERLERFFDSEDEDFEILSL

[12] = viability of HCT116 lacking mutant beta-catenin – cell-based, human colon tumor, dose response (AID 1045); format: functional;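 note: HCT116 colon tumor cells with beta catenin knocked out; cells exposed to compound for 60 hours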
[13] = viability of PTEN-deleted HCT116 cells – cell-based, HCT116 PTEN knockout, dose response (AID 1047); format: functional;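 note: HCT116 colon tumor cells with PTEN knocked out; cells exposed to compound for 60 hours before readout; potency for loss of cell viability measured by luminescence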
[14] = biological target: T5, Heat shock factor protein 1 (Mus musculus, UniProt P38532); assay: enhancement of HSF1-driven luciferase signal – cell-based, NIH3T3, luminescence, dose retest, confirmation (AID 435004); format: functional;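 note: stress induced by proteasome inhibitor MG132 added 30 min after compound; luciferase reporter driven by HSF1 response element in NIH3T3 cells; actives raise luminescence as potentiators of the MG132 stress response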
T5 sequence (P38532 whole entry): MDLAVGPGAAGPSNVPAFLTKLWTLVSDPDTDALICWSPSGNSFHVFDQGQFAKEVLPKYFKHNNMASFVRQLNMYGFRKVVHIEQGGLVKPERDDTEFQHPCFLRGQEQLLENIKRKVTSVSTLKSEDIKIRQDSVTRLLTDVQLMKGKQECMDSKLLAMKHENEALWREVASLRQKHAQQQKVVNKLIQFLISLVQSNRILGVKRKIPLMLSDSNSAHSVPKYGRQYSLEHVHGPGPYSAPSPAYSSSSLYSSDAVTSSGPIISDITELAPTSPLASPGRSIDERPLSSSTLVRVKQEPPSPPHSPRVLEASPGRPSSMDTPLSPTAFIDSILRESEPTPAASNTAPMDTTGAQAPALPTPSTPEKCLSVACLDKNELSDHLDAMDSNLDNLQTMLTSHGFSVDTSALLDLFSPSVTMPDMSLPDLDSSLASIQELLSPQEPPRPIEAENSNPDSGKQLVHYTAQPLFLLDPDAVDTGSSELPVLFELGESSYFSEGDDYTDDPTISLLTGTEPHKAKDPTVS

[15] = Fluorescence-based cell-based high throughput dose response assay for inhibitors of the interaction of nucleotide-binding oligomerization domain containing 2 (NOD2) and the receptor-interacting serine-threonine kinase 2 (RIPK2).; format: functional; details: Homo sapiens
[16] = viability of uninfected HEp-2 cells – cell-based, HTS, cytotoxicity control for RSV inhibitor project, dose response (AID 2410); format: functional; details: human respiratory syncytial virus
[17] = intracellular Trypanosoma cruzi inhibitors in host cells – cell-based, plate reader, cherry-pick samples, set 3, dose response (AID 651818); format: functional;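 note: compounds incubated with infected cells for about four days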
[18] = blockers of HIV-1 envelope-mediated cell-cell fusion – cherry-pick, dose response (AID 652057); format: functional, cell-based
[19] = biological target: Endoplasmic reticulum aminopeptidase 1 (Homo sapiens, UniProt Q9NZ08); assay: inhibition of human ERAP1 enzyme activity – biochemical, cherry-pick, set 2, plate reader, dose response (AID 743314)
[20] = HEK-293T cell viability reduction – luminescence, B-cell screen hits, cytotoxicity control for BCR NF-kB inhibitor project, dose response (AID 489021); format: functional, cell-based;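 note: HEK-293T cells carrying an NF-kB luciferase reporter; cells exposed to compound for about 14 hours before viability readout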
cells [21] = format: functional, cell-based
cells [22] = format: functional, cell-based; remark: listed apart in the source

Chain of Induced myeloid leukemia cell differentiation protein Mcl-1 (Q07820 whole entry): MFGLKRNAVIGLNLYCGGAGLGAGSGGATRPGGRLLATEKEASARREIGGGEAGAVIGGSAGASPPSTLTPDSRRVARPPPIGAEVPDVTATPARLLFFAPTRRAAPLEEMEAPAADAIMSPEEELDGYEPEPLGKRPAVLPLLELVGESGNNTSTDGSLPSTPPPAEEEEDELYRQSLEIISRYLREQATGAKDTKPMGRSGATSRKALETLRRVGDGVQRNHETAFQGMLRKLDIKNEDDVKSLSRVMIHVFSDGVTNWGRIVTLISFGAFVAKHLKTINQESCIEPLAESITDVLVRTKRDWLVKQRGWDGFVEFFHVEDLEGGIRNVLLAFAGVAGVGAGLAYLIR
Chain of Cytochrome P450 2C9 (P11712 whole entry): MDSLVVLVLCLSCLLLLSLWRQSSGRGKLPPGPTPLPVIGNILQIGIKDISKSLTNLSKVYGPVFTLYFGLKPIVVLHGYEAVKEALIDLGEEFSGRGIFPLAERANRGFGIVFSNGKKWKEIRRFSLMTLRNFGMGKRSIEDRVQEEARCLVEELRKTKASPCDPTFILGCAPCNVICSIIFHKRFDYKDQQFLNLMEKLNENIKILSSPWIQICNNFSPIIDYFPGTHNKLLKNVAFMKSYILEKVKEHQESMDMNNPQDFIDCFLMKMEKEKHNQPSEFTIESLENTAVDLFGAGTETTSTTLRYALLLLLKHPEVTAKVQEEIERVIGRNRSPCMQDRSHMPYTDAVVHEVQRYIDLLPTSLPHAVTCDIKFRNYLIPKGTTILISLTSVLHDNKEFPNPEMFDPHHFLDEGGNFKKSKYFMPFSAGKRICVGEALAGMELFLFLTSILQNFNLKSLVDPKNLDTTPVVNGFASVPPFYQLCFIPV
Chain of Cytochrome P450 3A4 (P08684 whole entry): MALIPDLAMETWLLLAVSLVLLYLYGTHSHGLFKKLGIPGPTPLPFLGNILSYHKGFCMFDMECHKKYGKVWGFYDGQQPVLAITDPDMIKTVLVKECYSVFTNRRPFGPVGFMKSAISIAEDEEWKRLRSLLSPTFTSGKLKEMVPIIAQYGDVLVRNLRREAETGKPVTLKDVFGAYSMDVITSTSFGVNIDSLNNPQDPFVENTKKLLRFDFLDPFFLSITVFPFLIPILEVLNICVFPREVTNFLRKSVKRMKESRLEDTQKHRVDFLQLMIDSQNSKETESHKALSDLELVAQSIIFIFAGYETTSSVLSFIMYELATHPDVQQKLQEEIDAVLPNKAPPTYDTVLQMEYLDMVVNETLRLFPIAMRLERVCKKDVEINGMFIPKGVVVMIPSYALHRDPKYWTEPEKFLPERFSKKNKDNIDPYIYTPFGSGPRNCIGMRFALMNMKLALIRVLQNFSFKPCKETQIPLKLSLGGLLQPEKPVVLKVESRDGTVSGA
Chain of Endoplasmic reticulum aminopeptidase 1 (Q9NZ08 whole entry): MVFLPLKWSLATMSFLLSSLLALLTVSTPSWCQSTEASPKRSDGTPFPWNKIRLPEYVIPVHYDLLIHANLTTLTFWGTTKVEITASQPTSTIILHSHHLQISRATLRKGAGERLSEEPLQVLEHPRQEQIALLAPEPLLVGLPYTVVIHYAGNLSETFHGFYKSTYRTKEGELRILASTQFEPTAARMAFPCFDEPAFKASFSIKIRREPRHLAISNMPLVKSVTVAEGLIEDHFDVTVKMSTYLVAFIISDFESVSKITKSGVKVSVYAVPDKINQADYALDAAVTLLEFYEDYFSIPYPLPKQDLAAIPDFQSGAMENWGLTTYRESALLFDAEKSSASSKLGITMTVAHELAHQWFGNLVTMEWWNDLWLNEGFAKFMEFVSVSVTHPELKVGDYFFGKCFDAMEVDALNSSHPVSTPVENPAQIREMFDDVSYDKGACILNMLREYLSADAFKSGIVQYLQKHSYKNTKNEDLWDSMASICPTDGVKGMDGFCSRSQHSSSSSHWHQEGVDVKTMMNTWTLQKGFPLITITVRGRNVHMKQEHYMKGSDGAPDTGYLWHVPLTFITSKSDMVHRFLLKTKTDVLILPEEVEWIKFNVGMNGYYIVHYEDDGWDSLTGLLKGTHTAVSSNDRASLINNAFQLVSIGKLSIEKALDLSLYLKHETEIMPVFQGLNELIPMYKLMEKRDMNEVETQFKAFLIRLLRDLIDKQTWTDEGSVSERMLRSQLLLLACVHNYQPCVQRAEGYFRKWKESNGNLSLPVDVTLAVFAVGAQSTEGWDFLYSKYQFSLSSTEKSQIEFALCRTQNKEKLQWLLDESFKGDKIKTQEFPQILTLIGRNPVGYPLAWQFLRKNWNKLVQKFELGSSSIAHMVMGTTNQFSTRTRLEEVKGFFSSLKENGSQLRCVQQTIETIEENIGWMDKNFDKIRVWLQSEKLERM
Chain of Phospholipase A2 (P04054 whole entry): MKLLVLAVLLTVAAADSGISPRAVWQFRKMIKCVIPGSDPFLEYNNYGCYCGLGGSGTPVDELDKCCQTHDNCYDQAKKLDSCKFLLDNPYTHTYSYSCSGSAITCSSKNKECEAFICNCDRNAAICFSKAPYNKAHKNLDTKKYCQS
Chain of Cytochrome P450 2D6 (P10635 whole entry, the tested form may be a part): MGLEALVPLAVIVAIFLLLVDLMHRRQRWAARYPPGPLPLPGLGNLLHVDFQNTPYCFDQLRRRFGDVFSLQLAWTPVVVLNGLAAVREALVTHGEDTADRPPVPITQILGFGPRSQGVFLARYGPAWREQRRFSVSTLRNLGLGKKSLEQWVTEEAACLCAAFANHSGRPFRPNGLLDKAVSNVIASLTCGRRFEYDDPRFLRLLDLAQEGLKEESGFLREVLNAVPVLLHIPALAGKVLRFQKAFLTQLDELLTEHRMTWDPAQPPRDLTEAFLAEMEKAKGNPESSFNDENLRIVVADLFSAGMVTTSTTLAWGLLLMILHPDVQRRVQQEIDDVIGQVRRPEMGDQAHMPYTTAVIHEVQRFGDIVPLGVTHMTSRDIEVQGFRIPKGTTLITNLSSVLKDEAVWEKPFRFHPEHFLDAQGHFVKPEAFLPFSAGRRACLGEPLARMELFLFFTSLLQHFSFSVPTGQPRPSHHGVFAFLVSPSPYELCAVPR

Cc1cc2ccccc2nc1SCC(=O)Nc1nc(-c2ccccc2)cs1
AC50 (Cytochrome P450 1A2): 0.2 µM (inconclusive)
AC50 (Cytochrome P450 2C9): 1.12 µM (inconclusive)
AC50 (Cytochrome P450 3A4): 0.178 µM (inconclusive)
AC50 (Cytochrome P450 2D6): inconclusive

O=C1c2cccc(OCc3ccc(F)cc3)c2CCN1Cc1ccccc1
AC50 [1]: 4.11 µM (active)
AC50 [2]: 10.1 µM (active)

O=C(NCCc1c[nH]c2ccccc12)c1cc(Cl)c2c(c1)OCO2
AC50 (HeLa): 70.3 µM (active)

CCOC(=O)C1(C)C(C(=O)OC)=C(c2ccc(OC)cc2)c2ccccc2N1C(=O)OC (configuration not stated)
IC50 [3]: 29.5 µM (active)

Nc1nn2c(O)cc(-c3ccccc3)nc2c1N=Nc1ccc(S(N)(=O)=O)cc1
AC50 [4]: 1.3 µM (active)
EC50 [5]: > 38 µM (not active)
EC50 [6]: > 160 µM (inactive)

COc1ccc(-c2nnn(Cc3ccccc3F)n2)cc1
AC50 (HeLa): 60.2 µM (active)
EC50 [7]: 1.75 µM (active)
EC50 (H4): 44.6 µM (inconclusive)

Cc1ccc(-c2cc(C(F)F)n3ncc(C(=O)Nc4ccc(S(=O)(=O)Nc5ccccc5C)cc4)c3n2)cc1
AC50 (Escherichia coli): 21.5 µM (active)

COc1cc(/C=C(\C#N)c2nn(CCO)c(N)c2C#N)cc(OC)c1OC
AC50 (Escherichia coli): 29 µM (active)

CC(=O)c1ccc(NC(=O)CSc2nnc(-c3ccco3)c(-c3ccco3)n2)cc1
IC50 [3]: 3.88 µM (active)
CC50 [8]: > 40 µM (active)
IC50 [9]: 8.94 µM (active)

CCCCNc1c(-c2ccc(-c3cccc(Cl)c3)cc2)nc2ccccn12
AC50 [10]: 3.86 µM (active)
AC50 (HeLa): 32.4 µM (active)
AC50 (INS1): 6.04 µM (active)

O=C(O)c1cc(Br)ccc1NN=C1CCCCC1
IC50 (Phospholipase A2): 9.4 µM (active)
AC50 [11]: > 100 µM (inactive)
IC50 (Cysteine protease ATG4B): 13.4 µM (active)

Cc1cc(SC#N)cc(C)c1NC(=O)CCl
EC50 [12]: 17.4 µM (active)
EC50 [13]: 19.8 µM (active)
EC50 [14]: 5.97 µM (active)
IC50 [15]: 11.1 µM (inactive)

CCC(=O)Nc1ccc(C(=O)Cn2ncc(Cl)c(Cl)c2=O)cc1
AC50 [10]: 5.04 µM (active)
IC50 [15]: 6.53 µM (active)

CCCCSc1nc2c(c(=O)[nH]c(=O)n2C)n1CCc1ccccc1
AC50 (Escherichia coli): 50.8 µM (active)

CN(CCC#N)C(=O)c1cc2c(s1)-c1ccccc1SC2
AC50 (HeLa): 63.4 µM (active)
CC50 [16]: 28 µM (active)

CC(=O)O[C@H](COc1c2ccoc2cc2oc(=O)ccc12)C(C)(C)O
AC50 [4]: 3.74 µM (active)

C[C@H]1CN([C@@H](C)CO)C(=O)Cc2cc(NS(=O)(=O)c3ccc(Cl)cc3)ccc2O[C@H]1CN(C)CC1CCCCC1
AC50 [17]: 5.05 µM (active)

C[C@@H]1CN([C@H](C)CO)C(=O)c2cccc(NC(=O)c3cnccn3)c2O[C@@H]1CN(C)Cc1ccc(C(=O)Nc2ccccc2N)cc1
AC50 [17]: 3.06 µM (active)

C[C@@H]1CCCCO[C@@H](CN(C)Cc2ccc(C(=O)Nc3ccccc3N)cc2)[C@@H](C)CN([C@H](C)CO)C(=O)c2cc(NC(=O)Nc3ccc(C(F)(F)F)cc3)ccc2O1
AC50 [17]: 0.554 µM (active)

C[C@@H]1CN([C@@H](C)CO)C(=O)Cc2cc(NC(=O)Nc3ccc(C(F)(F)F)cc3)ccc2O[C@@H]1CN(C)S(=O)(=O)c1cccs1
AC50 [17]: 3.54 µM (active)

Cc1noc(C)c1S(=O)(=O)N(C)C[C@@H]1Oc2ccc(NC(=O)Cc3ccccc3)cc2CC(=O)N([C@H](C)CO)C[C@@H]1C
AC50 [18]: < 0.26 µM (active)
AC50 [2]: 2.92 µM (active)

O=C([C@@H]1[C@@H](CO)[C@@H]2Cn3c(ccc(/C=C/c4ccccc4)c3=O)[C@@H]2N1CC1CC1)N1CCOCC1
AC50 [19]: 13.7 µM (active)

CCOc1ccc(/C=C2\SC(=S)N(CCC(=O)Nc3cccc(C(=O)O)c3)C2=O)cc1
IC50 [3]: 3.77 µM (active)
IC50 [20]: > 80 µM (inactive)

C[C@@H]1O[C@@H](OC[C@H]2O[C@@H](Oc3c(-c4ccc(O)cc4)oc4cc(O)cc(O)c4c3=O)[C@H](O)[C@@H](O)[C@@H]2O)[C@H](O)[C@H](O)[C@H]1O [NICOTIFLOROSIDE]
EC50 (cells [21]): > 350 µM (not active)
AC50 [4]: 7.78 µM (active)
EC50 (cells [22]): > 350 µM (not active)
